Source: patent US20100280600A1, “DUAL DRUG STENT” (priority 2009, published 2010)

Key:
[1] = Porcine drug elution PK study of dual drug eluting coating; format: in vivo; conditions: after 8 days of implantation, FIG. 11 stent (sirolimus + cilostazol in one EVA/BMA layer, 100 μg BMA overcoat)
From the text: Another critical parameter for the performance of the thrombus resistance of a device coated with cilostazol is the duration of the drug release from the coating. This is of particular significance in the two weeks after device implantation. In the porcine drug elution PK studies of the dual drug eluting coating, both cilostazol and sirolius were slowly released from the coating, resulting in a sustained drug release profile. The purpose of the porcine PK study is to assess the local pharmacokinetics of a drug eluting stent at a given implantation time. Normally three stents are implanted in three different coronary arteries in a pig for a given time point and then retrieved for total drug recovery analysis. The stents are retrieved at predetermined time points; namely, 1, 3 and 8 days. The stents are extracted and the total amount of drug remaining on the stents is determined by analysis utilizing HPLC (high performance liquid chromatography) for total drug amount. The difference between the original amount of drug on the stent and the amount of drug retrieved at a given time represents the amount of drug released in that period. The continuous release of drug into surrounding arterial tissue is what prevents the neointimal growth and restenosis in the coronary artery. A normal plot represents the percentage of total drug released (%, y-axis) vs. time of implantation (day, x-axis). […]

[2] = In vitro release kinetics of sirolimus and cilostazol from coated stents; format: physicochemical
[3] = Cumulative in vivo drug release from reservoir dual drug eluting stent; conditions: 30 days; compared to cilostazol
From the text: Referring to FIG. 29, there is illustrated the cumulative in vivo drug release percentages for each drug over a thirty day period. Curve 2902 represents the profile for cilostazol while curve 2904 represents the profile for sirolimus. FIG. 30 is a graphical representation of the amount of each drug, in micrograms, released in vivo. Curve 3002 represents the profile for cilostazol while curve 3004 represents the profile for sirolimus. The curves in the figures illustrate that both the drugs elute independently of each other with minimal or substantially no interaction. […] Since the amount of drug (by weight) is different for the drugs in their respective reservoirs, the total amount of drug released at thirty (30) days was higher for sirolimus as compared to cilostazol.

| total amount of drug released (by weight) [3] | SMILES | drug remained in the drug coating [1] | in vitro drug release rate ([2]; 200 μg BMA diffusion overcoat (FIG. 4) versus 100 μg (FIG. 6)) | in vitro release ([2]; FIG. 11 stent (sirolimus + cilostazol in one EVA/BMA layer, 100 μg BMA overcoat), FIG. 10) |
| --- | --- | --- | --- | --- |
| – | O=C1CCc2cc(OCCCCc3nnnn3C3CCCCC3)ccc2N1 [cilostazol, 6[4-(1-cyclohexyl-1H-tetrazol-5-yl)-butoxy]-3,4-dihydro-2-(1H)-quinolinone] | ~80% | comparatively slower | ~35% |
| higher | CO[C@H]1C[C@@H]2CC[C@@H](C)[C@@](O)(O2)C(=O)C(=O)N2CCCC[C@H]2C(=O)O[C@H]([C@H](C)C[C@@H]2CC[C@@H](O)[C@H](OC)C2)CC(=O)[C@H](C)/C=C(\C)[C@@H](O)[C@@H](OC)C(=O)[C@H](C)C[C@H](C)/C=C/C=C/C=C/1C [rapamycin] | ~80% | – | – |
